Legend:
Assay type in all cases: in vivo
[1] = test system: Myzus persicae (Green peach aphid); experiment: Myzus persicae (Green peach aphid): Feeding/Contact activity; conditions: foliar, 144 h, application rate of 200 ppm, aphid population of mixed ages on sunflower leaf discs, assessed 6 days after infestation, read-out: control (mortality)
Experimental: Myzus persicae (Green peach aphid): Feeding/Contact activity Sunflower leaf discs were placed onto agar in a 24-well microtiter plate and sprayed with aqueous test solutions prepared from 10,000 ppm DMSO stock solutions. After drying, the leaf discs were infested with an aphid population of mixed ages. The samples were assessed for mortality 6 days after infestation.

[2] = test system: Euschistus heros (Neotropical Brown Stink Bug); experiment: Euschistus heros (Neotropical Brown Stink Bug): Feeding/contact activity; conditions: 120 h, application rate of 200 ppm, N2 nymphs on soybean leaves, assessed 5 days after infestation, read-out: control (mortality)
Experimental: Euschistus heros (Neotropical Brown Stink Bug): Feeding/contact activity Soybean leaves on agar in 24-well microtiter plates were sprayed with aqueous test solutions prepared from 10,000 ppm DMSO stock solutions. After drying the leaves were infested with N2 nymphs. The samples were assessed for mortality 5 days after infestation.

[3] = test system: Thrips tabaci (Onion Thrips); experiment: Thrips tabaci (Onion Thrips): Feeding/Contact activity; conditions: foliar, 144 h, application rate of 200 ppm, thrips population of mixed ages on sunflower leaf discs, assessed 6 days after infestation, read-out: control (mortality)
Experimental: Thrips tabaci (Onion Thrips): Feeding/Contact activity
(§1) Sunflower leaf discs were placed on agar in 24-well microtiter plates and sprayed with aqueous test solutions prepared from 10,000 ppm DMSO stock solutions. After drying the leaf discs were infested with a thrips population of mixed ages. The samples were assessed for mortality 6 days after infestation.

[4] = test system: Spodoptera littoralis (Egyptian cotton leaf worm); experiment: Spodoptera littoralis (Egyptian cotton leaf worm): Feeding/contact activity; conditions: foliar, 72 h, application rate of 200 ppm, L1 larvae on cotton leaf discs, assessed 3 days after infestation, read-out: control (mortality)
Experimental: Spodoptera littoralis (Egyptian cotton leaf worm): Feeding/contact activity Cotton leaf discs were placed onto agar in 24-well microtiter plates and sprayed with aqueous test solutions prepared from 10,000 ppm DMSO stock solutions. After drying the leaf discs were infested with five L1 larvae. The samples were assessed for mortality 3 days after infestation.

[5] = test system: Tetranychus urticae (Two-spotted spider mite); experiment: Tetranychus urticae (Two-spotted spider mite): Feeding/contact activity; conditions: foliar, 192 h, application rate of 200 ppm, mite population of mixed ages (mobile stages) on bean leaf discs, assessed 8 days after infestation, read-out: control (mortality)
Experimental: Tetranychus urticae (Two-spotted spider mite): Feeding/contact activity
as §1, with “Bean” for “Sunflower”, “discs” for “discs were placed”, “were” for “and”, “mite” for “thrips”, “on mixed population (mobile stages) 8” for “6”

[6] = test system: Diabrotica balteata (Corn root worm); experiment: Diabrotica balteata (Corn root worm), maize sprouts sprayed, L2 larvae mortality; conditions: 96 h, application rate of 200 ppm, L2 larvae on maize sprouts, assessed 4 days after infestation, read-out: control (mortality)
Experimental: Diabrotica balteata (Corn root worm):
Maize sprouts placed onto an agar layer in 24-well microtiter plates were treated with aqueous test solutions prepared from 10,000 ppm DMSO stock solutions by spraying. After drying, the plates were infested with L2 larvae (6 to 10 per well). The samples were assessed for mortality 4 days after infestation.

[7] = test system: Plutella xylostella (Diamond back moth); experiment: Plutella xylostella (Diamond back moth): Feeding/contact activity; conditions: 120 h, application rate of 200 ppm, L2 larvae on artificial diet, assessed 5 days after infestation, read-out: control (mortality)
Experimental: Plutella xylostella (Diamond back moth): Feeding/contact activity
24-well microtiter plates with artificial diet were treated with aqueous test solutions prepared from 10,000 ppm DMSO stock solutions by pipetting. After drying, the plates were infested with L2 larvae (10 to 15 per well). The samples were assessed for mortality 5 days after infestation.

Measured: mortality at 200 ppm

N#CC1(NC(=O)c2cc(-c3cnn(-c4c(Br)cc(C(F)(C(F)(F)F)C(F)(F)F)n4CF)c3)ccc2Cl)CC1 [Compound 12, 5-[1-[3-bromo-1-(fluoromethyl)-5-[1,2,2,2-tetrafluoro-1-(trifluoromethyl)ethyl]pyrrol-2-yl]pyrazol-4-yl]-2-chloro-N-(1-cyanocyclopropyl)benzamide]
≥ 80%: all assays above

Cn1c(C(F)(C(F)(F)F)C(F)(F)F)cc(C#N)c1-n1cc(-c2ccc(Cl)c(C(=O)NC3(C#N)CC3)c2)cn1 [Compound 10, 2-chloro-N-(1-cyanocyclopropyl)-5-[1-[3-cyano-1-methyl-5-[1,2,2,2-tetrafluoro-1-(trifluoromethyl)ethyl]pyrrol-2-yl]pyrazol-4-yl]benzamide]
≥ 80%: all assays above

CC(C)(C)n1c(C(F)(C(F)(F)F)C(F)(F)F)cc(Br)c1-n1cc(-c2ccc(Cl)c(C(=O)NC3(C#N)CC3)c2)cn1 [Compound 25, 5-[1-[3-bromo-1-tert-butyl-5-[1,2,2,2-tetrafluoro-1-(trifluoromethyl)ethyl]pyrrol-2-yl]pyrazol-4-yl]-2-chloro-N-(1-cyanocyclopropyl)benzamide]
≥ 80%: all assays above

Cn1c(-n2cc(-c3ccc(Cl)c(C(=O)NC4(C#N)CC4)c3)cn2)ccc1C(F)(C(F)(F)F)C(F)(F)C(F)(F)F (stereo not shown) [Compound 28, 2-chloro-N-(1-cyanocyclopropyl)-5-[1-[5-[1,2,2,3,3,3-hexafluoro-1-(trifluoromethyl)propyl]-1-methyl-pyrrol-2-yl]pyrazol-4-yl]benzamide]
≥ 80%: all assays above

CC(C)n1c(C(F)(C(F)(F)F)C(F)(F)F)cc(Br)c1-n1cc(-c2ccc(Cl)c(C(=O)NC3(C#N)CC3)c2)cn1 [Compound 24, 5-[1-[3-bromo-1-isopropyl-5-[1,2,2,2-tetrafluoro-1-(trifluoromethyl)ethyl]pyrrol-2-yl]pyrazol-4-yl]-2-chloro-N-(1-cyanocyclopropyl)benzamide]
≥ 80%: all assays above

Cn1c(C(F)(C(F)(F)F)C(F)(F)F)cc(Br)c1-n1cc(-c2ccc(Cl)c(C(=O)NC3(C#N)CC3)c2)cn1 [Compound 2, 5-[1-[3-bromo-1-methyl-5-[1,2,2,2-tetrafluoro-1-(trifluoromethyl)ethyl]pyrrol-2-yl]pyrazol-4-yl]-2-chloro-N-(1-cyanocyclopropyl)benzamide]
≥ 80%: all assays above

CCN(C(=O)c1cc(-c2cnn(-c3c(Br)cc(C(F)(C(F)(F)F)C(F)(F)F)n3C)c2)ccc1Cl)C1(C#N)CC1 [Compound 20, 5-[1-[3-bromo-1-methyl-5-[1,2,2,2-tetrafluoro-1-(trifluoromethyl)ethyl]pyrrol-2-yl]pyrazol-4-yl]-2-chloro-N-(1-cyanocyclopropyl)-N-ethyl-benzamide]
≥ 80%: all assays above

Cn1c(C(F)(C(F)(F)F)C(F)(F)F)cc(Cl)c1-n1cc(-c2ccc(Cl)c(C(=O)NC3(C#N)CC3)c2)cn1 [Compound 9, 2-chloro-5-[1-[3-chloro-1-methyl-5-[1,2,2,2-tetrafluoro-1-(trifluoromethyl)ethyl]pyrrol-2-yl]pyrazol-4-yl]-N-(1-cyanocyclopropyl)benzamide]
≥ 80%: all assays above

N#CC1(NC(=O)c2cc(-c3cnn(-c4c(Br)cc(C(F)(C(F)(F)F)C(F)(F)F)n4C4CC4)c3)ccc2Cl)CC1 [Compound 42, 5-[1-[3-bromo-1-cyclopropyl-5-[1,2,2,2-tetrafluoro-1-(trifluoromethyl)ethyl]pyrrol-2-yl]pyrazol-4-yl]-2-chloro-N-(1-cyanocyclopropyl)benzamide]
≥ 80%: all assays above

N#CC1(NC(=O)c2cc(-c3cnn(-c4c(Cl)cc(C(F)(C(F)(F)F)C(F)(F)F)n4CF)c3)ccc2Cl)CC1 [Compound 29, 2-chloro-5-[1-[3-chloro-1-(fluoromethyl)-5-[1,2,2,2-tetrafluoro-1-(trifluoromethyl)ethyl]pyrrol-2-yl]pyrazol-4-yl]-N-(1-cyanocyclopropyl)benzamide]
≥ 80%: all assays above

Reference: patent publication US11459318B2, “Pesticidally active pyrrole derivatives” (Syngenta Participations AG, priority 2017, dated 2022)
